PubChem BioAssay AID256 (DTP/NCI, 2004)
Where “and” joins values, the source holds several entries; their conditions need not be identical. Equal entries are not always repeated. Toxic doses and inconclusive results are not listed. The calls were made as follows: active = survival T/C of 150% or more; inactive = T/C below 125% in these data.

Test system: CD2F1 mice, L1210 leukemia ip, survival T/C
Assay: NCI In Vivo Anticancer Drug Screen. Data for tumor model L1210 Leukemia (intraperitoneal) in CD2F1 (CDF1) mice
Settings: higher = longer survival
Outline: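 Each value reflects a quotient of treated over vehicle control outcomes in mice with a transplanted tumor.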

[1] = endpoint: mean survival time, dose: 100.0 mg/kg/injection, schedule: Q01DX001 (ip), vehicle: saline with Tween-80
[2] = endpoint: mean survival time, dose: 200.0 mg/kg/injection, schedule: Q01DX001 (ip), vehicle: saline with Tween-80
[3] = endpoint: mean survival time, dose: 400.0 mg/kg/injection, schedule: Q01DX001 (ip), vehicle: saline with Tween-80
[4] = endpoint: mean survival time, dose: 50.0 mg/kg/injection, schedule: Q01DX009 (ip), vehicle: saline with Tween-80
[5] = endpoint: mean survival time, dose: 100.0 mg/kg/injection, schedule: Q01DX009 (ip), vehicle: saline with Tween-80
[6] = endpoint: mean survival time, dose: 100.0 mg/kg/injection, schedule: Q04DX003 (ip), vehicle: saline with Tween-80
[7] = endpoint: mean survival time, dose: 200.0 mg/kg/injection, schedule: Q01DX009 (ip), vehicle: saline with Tween-80
[8] = endpoint: mean survival time, dose: 200.0 mg/kg/injection, schedule: Q04DX003 (ip), vehicle: saline with Tween-80
[9] = endpoint: mean survival time, dose: 400.0 mg/kg/injection, schedule: Q04DX003 (ip), vehicle: saline with Tween-80
[10] = endpoint: mean survival time, dose: 25.0 mg/kg/injection, schedule: Q01DX009 (ip), vehicle: saline with Tween-80

Measured: T/C

Cn1c(=S)sc2nc3ccccc3n2c1=S
inactive: endpoint: median survival time, dose: 15.0 mg/kg/injection, schedule: Q01DX005 (ip), vehicle: saline with Tween-80 103 % of control | endpoint: median survival time, dose: 30.0 mg/kg/injection, schedule: Q01DX005 (ip), vehicle: saline with Tween-80 107 % of control | endpoint: median survival time, dose: 60.0 mg/kg/injection, schedule: Q01DX005 (ip), vehicle: saline with Tween-80 111 % of control | endpoint: median survival time, dose: 120.0 mg/kg/injection, schedule: Q01DX005 (ip), vehicle: saline with Tween-80 107 % of control | endpoint: median survival time, dose: 240.0 mg/kg/injection, schedule: Q01DX005 (ip), vehicle: saline with Tween-80 107 % of control

Cc1ccc(C(=O)/C=C/c2ccccc2)cc1
inactive: endpoint: mean survival time, dose: 25.0 mg/kg/injection, schedule: Q01DX009 (ip), vehicle: Klucel (hydroxypropylcellulose) (HPC) 86 % of control | endpoint: mean survival time, dose: 50.0 mg/kg/injection, schedule: Q01DX009 (ip), vehicle: Klucel (hydroxypropylcellulose) (HPC) 88 % of control | [1] 108 % of control | endpoint: mean survival time, dose: 100.0 mg/kg/injection, schedule: Q01DX009 (ip), vehicle: Klucel (hydroxypropylcellulose) (HPC) 86 % of control | [2] 100 % of control | endpoint: mean survival time, dose: 200.0 mg/kg/injection, schedule: Q01DX009 (ip), vehicle: Klucel (hydroxypropylcellulose) (HPC) 86 % of control | [3] 100 % of control

O=NN(Cc1cccnc1)Cc1cccnc1
inactive: endpoint: mean survival time, dose: 75.0 mg/kg/injection, schedule: Q01DX001 (ip), vehicle: water 102 % of control | endpoint: mean survival time, dose: 150.0 mg/kg/injection, schedule: Q01DX001 (ip), vehicle: water 102 % of control

c1ccc(P(c2ccccc2)c2ccccc2)cc1
inactive: [4] 96 % of control | [5] 100 % of control | [6] 100 % of control | [7] 98 % of control | [8] 100 % of control | [9] 93 % of control

Cc1ccc(C)c(OC(=O)Nc2cccc3ccccc23)c1
inactive: endpoint: mean survival time, dose: 100.0 mg/kg/injection, schedule: Q04DX002 (ip), vehicle: saline with Tween-80 91 % of control | endpoint: mean survival time, dose: 200.0 mg/kg/injection, schedule: Q04DX002 (ip), vehicle: saline with Tween-80 91 % of control | endpoint: mean survival time, dose: 400.0 mg/kg/injection, schedule: Q04DX002 (ip), vehicle: saline with Tween-80 91 % of control

NC(=O)c1cn(C2OC(CO)C3OC32)c2ncnc(NC(=O)c3ccccc3)c12 (stereo not given)
inactive: endpoint: mean survival time, dose: 25.0 mg/kg/injection, schedule: Q01DX009 (ip), vehicle: distilled water + Tween-80 90 % of control | endpoint: mean survival time, dose: 50.0 mg/kg/injection, schedule: Q01DX009 (ip), vehicle: distilled water + Tween-80 93 % of control | endpoint: mean survival time, dose: 100.0 mg/kg/injection, schedule: Q01DX009 (ip), vehicle: distilled water + Tween-80 93 % of control | endpoint: mean survival time, dose: 200.0 mg/kg/injection, schedule: Q01DX009 (ip), vehicle: distilled water + Tween-80 97 % of control | endpoint: mean survival time, dose: 400.0 mg/kg/injection, schedule: Q01DX009 (ip), vehicle: distilled water + Tween-80 100 % of control

COC(CNCCO)c1ccccc1 (stereo not given)
inactive: endpoint: mean survival time, dose: 25.0 mg/kg/injection, schedule: Q01DX001 (ip), vehicle: saline 97 % of control | endpoint: mean survival time, dose: 50.0 mg/kg/injection, schedule: Q01DX001 (ip), vehicle: saline 101 % of control | endpoint: mean survival time, dose: 100.0 mg/kg/injection, schedule: Q01DX001 (ip), vehicle: saline 100 % of control and 106 % of control

Nc1nc(N)c2nc(-c3ccccc3Cl)c(-c3ccccc3Cl)nc2n1
inactive: endpoint: mean survival time, dose: 25.0 mg/kg/injection, schedule: Q04DX002 (ip), vehicle: Klucel (hydroxypropylcellulose) (HPC) 91 % of control | endpoint: mean survival time, dose: 50.0 mg/kg/injection, schedule: Q04DX002 (ip), vehicle: Klucel (hydroxypropylcellulose) (HPC) 98 % of control | endpoint: mean survival time, dose: 100.0 mg/kg/injection, schedule: Q04DX002 (ip), vehicle: Klucel (hydroxypropylcellulose) (HPC) 95 % of control

COC(=O)c1cc(Cl)cc(C(=O)OC)c1
inactive: [5] 95 % of control | [7] 88 % of control

CCOc1ccccc1NC(=O)C(Br)C(Br)C(=O)O (stereo not given)
inactive: [1] 110 % of control | [2] 112 % of control | [3] 108 % of control

Cc1cc(C)c(NC(=O)CC#N)c(C)c1
inactive: [10] 88 % of control | [4] 86 % of control | [5] 93 % of control

CCOC(=O)/C(C)=C/C(O)CO (stereo not given)
inactive: endpoint: mean survival time, dose: 100.0 mg/kg/injection, schedule: Q01DX009 (ip), vehicle: saline sonified 96 % of control | [6] 105 % of control | endpoint: mean survival time, dose: 200.0 mg/kg/injection, schedule: Q01DX009 (ip), vehicle: saline sonified 95 % of control | [8] 98 % of control | [9] 96 % of control

O=C(O)C1CCCCC1C(=O)O.[NH-]C1CCC1.[NH2-].[Pt+2] (stereo not given)
inactive: endpoint: median survival time, dose: 3.12 mg/kg/injection, schedule: Q04DX003 (ip), vehicle: distilled water + Tween-80 107 % of control | endpoint: median survival time, dose: 6.25 mg/kg/injection, schedule: Q04DX003 (ip), vehicle: distilled water + Tween-80 102 % of control | endpoint: median survival time, dose: 12.5 mg/kg/injection, schedule: Q04DX003 (ip), vehicle: distilled water + Tween-80 106 % of control | endpoint: median survival time, dose: 25.0 mg/kg/injection, schedule: Q04DX003 (ip), vehicle: distilled water + Tween-80 102 % of control | endpoint: median survival time, dose: 50.0 mg/kg/injection, schedule: Q04DX003 (ip), vehicle: distilled water + Tween-80 103 % of control

Clc1ccc2c(CBr)ccnc2c1
inactive: endpoint: mean survival time, dose: 50.0 mg/kg/injection, schedule: Q04DX003 (ip), vehicle: other 110 % of control | endpoint: mean survival time, dose: 100.0 mg/kg/injection, schedule: Q04DX003 (ip), vehicle: other 112 % of control

CN(C)CCC(O)C(O)CCN(C)C (stereo not given)
inactive: endpoint: mean survival time, dose: 75.0 mg/kg/injection, schedule: Q01DX001 (ip), vehicle: other 102 % of control | endpoint: mean survival time, dose: 150.0 mg/kg/injection, schedule: Q01DX001 (ip), vehicle: other 102 % of control | endpoint: mean survival time, dose: 300.0 mg/kg/injection, schedule: Q01DX001 (ip), vehicle: other 103 % of control

CN(C)CCCNc1cc(O)c2c(c1O)C(=O)c1ccccc1C2=O
inactive: endpoint: mean survival time, dose: 25.0 mg/kg/injection, schedule: Q01DX009 (ip), vehicle: water 98 % of control | endpoint: mean survival time, dose: 50.0 mg/kg/injection, schedule: Q01DX009 (ip), vehicle: water 98 % of control | endpoint: mean survival time, dose: 100.0 mg/kg/injection, schedule: Q01DX009 (ip), vehicle: water 95 % of control | endpoint: mean survival time, dose: 200.0 mg/kg/injection, schedule: Q01DX009 (ip), vehicle: water 98 % of control

NCCOS(=O)(=O)O
inactive: endpoint: mean survival time, dose: 25.0 mg/kg/injection, schedule: Q01DX009 (ip), vehicle: saline 102 % of control | endpoint: mean survival time, dose: 50.0 mg/kg/injection, schedule: Q01DX009 (ip), vehicle: saline 98 % of control | endpoint: mean survival time, dose: 100.0 mg/kg/injection, schedule: Q01DX009 (ip), vehicle: saline 96 % of control

O=[N+]([O-])/C(=C/c1ccccc1)c1ccccc1
inactive: endpoint: mean survival time, dose: 6.25 mg/kg/injection, schedule: Q01DX009 (ip), vehicle: saline with Tween-80 107 % of control | endpoint: mean survival time, dose: 6.25 mg/kg/injection, schedule: Q04DX003 (ip), vehicle: saline with Tween-80 101 % of control | endpoint: mean survival time, dose: 12.5 mg/kg/injection, schedule: Q01DX009 (ip), vehicle: saline with Tween-80 105 % of control | endpoint: mean survival time, dose: 12.5 mg/kg/injection, schedule: Q04DX003 (ip), vehicle: saline with Tween-80 97 % of control | [10] 103 % of control | endpoint: mean survival time, dose: 25.0 mg/kg/injection, schedule: Q04DX003 (ip), vehicle: saline with Tween-80 101 % of control

Cn1c(=O)c2c(ncn2CCCNCC(O)c2ccc(O)c(O)c2)n(C)c1=O (stereo not given)
inactive: endpoint: mean survival time, dose: 12.5 mg/kg/injection, schedule: Q01DX005 (ip), vehicle: water 98 % of control | endpoint: mean survival time, dose: 25.0 mg/kg/injection, schedule: Q01DX005 (ip), vehicle: water 98 % of control | endpoint: mean survival time, dose: 50.0 mg/kg/injection, schedule: Q01DX005 (ip), vehicle: water 94 % of control | endpoint: mean survival time, dose: 100.0 mg/kg/injection, schedule: Q01DX005 (ip), vehicle: water 100 % of control

O=P(OCCCOCc1ccccc1)(N(CCCl)CCCl)N1CC1 (stereo not given)
inactive: endpoint: mean survival time, dose: 25.0 mg/kg/injection, schedule: Q01DX001 (ip), vehicle: other 104 % of control | endpoint: mean survival time, dose: 50.0 mg/kg/injection, schedule: Q01DX001 (ip), vehicle: other 106 % of control | endpoint: mean survival time, dose: 100.0 mg/kg/injection, schedule: Q01DX001 (ip), vehicle: DMSO 98 % of control | endpoint: mean survival time, dose: 100.0 mg/kg/injection, schedule: Q01DX001 (ip), vehicle: other 118 % of control | endpoint: mean survival time, dose: 200.0 mg/kg/injection, schedule: Q01DX001 (ip), vehicle: DMSO 103 % of control | endpoint: mean survival time, dose: 200.0 mg/kg/injection, schedule: Q01DX001 (ip), vehicle: other 101 % of control | endpoint: mean survival time, dose: 400.0 mg/kg/injection, schedule: Q01DX001 (ip), vehicle: DMSO 109 % of control | endpoint: mean survival time, dose: 400.0 mg/kg/injection, schedule: Q01DX001 (ip), vehicle: other 87 % of control

CC1(C)OCC(C(O)C(OC(=O)c2ccccc2)C2COC(C)(C)O2)O1 (stereo not given)
inactive: [1] 106 % of control | [2] 94 % of control | [3] 105 % of control
